Experimental data as given in patent publication US20020106348A1, “Cancer therapeutics involving the administration of 2-methoxyestradiol and an agent that increases intracellular superoxide anion” (priority 2000, published 2002).
Like-named read-outs stand apart in the source and are kept apart here.

Key:
[1] = tested on: leukemia cell lines, primary CLL cells, and normal lymphocytes; test: Cellular accumulation of [3H]2-ME; assay type: in vitro ADME, human; settings: 1 μM [3H]2-ME, 5-h incubation
Procedure: (§1) To determine cellular uptake of 2-ME, cells were incubated with 1 μM [^3H]2-ME (0.5 μCi/ml) for 5 h and when washed twice with cold PBS. Radioactivity associated with the cell pellets or the culture medium was quantitated by liquid scintillation counting. 2-ME concentrations were calculated based on the specific radioactivity of [^3H]2-ME, cell number, and the mean cell volume as measured by a Coulter Counter equipped with a 256-Channelyzer. HPLC was used to analyze potential cellular metabolites of 2-ME. Cells were incubated with [^3H]2-ME (0.5 μCi/ml) for 5 h, washed twice with PBS, and then extracted with 50% methanol. The extracts were analyzed by HPLC equipped with a UV detector (284 nm) and an on-line liquid scintillation counter, using a μBondapak C18 reversed-phase column and the following running conditions: 1 ml/min; 0-5 min, 100% buffer A (water:acetontrile:acetic acid=59:40:1); 5-17 min, a linear gradient of 0->100% buffer B (water:acetontrile:acetic acid=39:60:1); 17-30 min, 100% B.

ML-1 = test: H2O2 generation in cell culture, ML-1 cells; assay type: cell-based, human
HL-60 [2] = test: Release of cytochrome c to cytosol; assay type: cell-based, human
CLL cells [3] = test: Cellular O2^- by hydroethidine flow cytometry, CLL cells; assay type: cell-based, human
Procedure: The method using hydroethidine to detect O2^− in tissue sections was adapted for quantitation of intracellular O2^− by flow cytometry analysis. This assay is based on the unique chemical properties of hydroethidine, a weak blue fluorescent dye which is selectively converted by O2^− to ethidium with a bright red fluorescence. The control and drug-treated cells (1.5×10^6/sample) were incubated with hydroethidine (20 ng/ml) for 60 min, washed twice with 3 ml PBS, resuspended in 2 ml PBS, and then analyzed within 1 h by flow cytometry, using the red laser channel.

CML cells = test: MTT assay, primary CML cells; assay type: cell-based, human; settings: 30 μM, 3 patients
CEM = test: MTT assay, CEM leukemia cells; assay type: cell-based; settings: Homo sapiens, CCRF-CEM, CEM (mutant p53)
bovine CuZnSOD = biological target: T1, bovine CuZnSOD (Bos taurus, UniProt P00442); test: In vitro SOD activity assay, bovine CuZnSOD; assay type: biochemical; settings: purified enzyme; read-out: IC50, inhibition of bovine CuZnSOD
T1 construct: purchased Boehringer Mannheim
T1 sequence (P00442 whole entry): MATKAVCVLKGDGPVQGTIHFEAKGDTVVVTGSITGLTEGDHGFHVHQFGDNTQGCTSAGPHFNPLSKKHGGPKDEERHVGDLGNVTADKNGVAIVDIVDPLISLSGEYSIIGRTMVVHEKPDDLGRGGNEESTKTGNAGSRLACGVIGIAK
Procedure: (§2) A spectrophotometric assay was used to determine the effect of 2-methoxyestradiol (2-ME) on SOD activity in vitro with purified enzymes (bovine CuZnSOD from Boehringer Mannheim; human CuZnSOD and E. coli MnSOD from Sigma). The reactions contained 2.5 ml of 50 mM Na2CO3, 0.1 ml of 3 mM xanthine, 0.1 ml of 3 mM EDTA, and 0.1 ml of 0.8 mM XTT (3′-(1-[phenylamino-carbonyl]3,4-tetrazolium)-bis(4-methoxy-6-nitro)benzene-sulfonic acid hydrate), and the indicated concentrations of SOD and 2-ME. Xanthine oxidase (0.1 ml, 64 mU/ml) was added to start the reaction. After incubation at 24° C. for 30 min, the absorbance at 470 nm was measured. The relative activity (RA) of SOD was calculated by the following formula: […]
(§3) where a is the absorbance of reaction without SOD, b is the absorbance of reaction with SOD but without 2-ME, c is the absorbance of reaction with SOD in the presence of 2-ME. All values were subtracted by the background reading of the blank. In separate experiments using nitro blue tetrazolium or cytochrome c as substrates for SOD assay, 2-ME and DMSO (as a solvent for 2-ME) interfered with the calorimetric reaction. These artifacts preclude the use of NBT or cytochrome c as the substrates for measuring the effect of 2-ME on SOD activity. Neither 2-ME nor DMSO affect the calorimetric reaction of XTT.

CuZnSOD = test: Inhibition of CuZnSOD by estrogen derivatives; assay type: biochemical; settings: FIG. 20
CLL cells [4] = tested on: CLL cells
PHA-treated lymphocytes = test: MTT assay, PHA-stimulated lymphocytes; assay type: cell-based, human; settings: 3-day drug incubation
CuZnSOD (SOD1) mRNA = test: cDNA microarray assay of gene expression; assay type: cell-based, human; settings: 5 h after 2-ME incubation; normalized by three internal standards
Excerpt: The Atlas™ Human cDNA Expression Array I and the Atlas™ Human Cancer cDNA Expression Array (ClonTech Laboratories, Inc.) were used in this study. One microgram of mRNA isolated from the control or drug-treated cells was converted to radioactive cDNA by reverse transcription in the presence of [α-^32P]-dATP. The ^32P-labeled cDNA was then denatured and hybridized to the eDNA expression arrays according to the procedures recommended by the manufacturer. The radioactivity on the membranes was quantified by a phosphoimager.

AML cells = test: MTT assay, primary AML cells; assay type: cell-based, human; settings: 30 μM, 6 patients
HL-60 cells [5] = tested on: HL-60 cells
Raji = test: MTT assay, Raji cells; assay type: cell-based; settings: Homo sapiens, Raji (mutant p53)
HL-60 [6] = test: MTT assay, HL-60 cells; assay type: cell-based; settings: Homo sapiens, HL-60 (no p53)
xanthine oxidase = test: Effect on xanthine oxidase; assay type: biochemical; settings: 1-100 μM
HL-60 [7] = test: H2O2 generation in cell culture, HL-60 cells; assay type: cell-based, human
normal lymphocytes = test: DNA fragmentation in normal lymphocytes; assay type: cell-based, human; settings: 0-30 μM, additional 3 days
K562 = test: MTT assay, K562 cells; assay type: cell-based; settings: Homo sapiens, K562 (no p53)
[8] = tested on: ML-1, HL-60 and CLL cells; test: HPLC analysis of cellular metabolites of [3H]2-ME; assay type: in vitro ADME, human; settings: [3H]2-ME 0.5 μCi/ml, 5 h
Procedure: as §1

HL-60 cells [9] = test: Cellular O2^- by flow cytometry, HL-60 cells; assay type: cell-based, human; settings: 0.25 μM
ML-1 cells = test: Cellular O2^- by hydroethidine flow cytometry, ML-1 cells; assay type: cell-based, human; settings: ML-1, 1 μM, 5 h; control 4.3
E. coli MnSOD = E. coli MnSOD (Escherichia coli, UniProt P00448); test: In vitro SOD activity assay, E. coli MnSOD; assay type: biochemical; settings: purified enzyme; read-out: IC50, inhibition of E. coli MnSOD
Sequence of E. coli MnSOD (P00448 whole entry): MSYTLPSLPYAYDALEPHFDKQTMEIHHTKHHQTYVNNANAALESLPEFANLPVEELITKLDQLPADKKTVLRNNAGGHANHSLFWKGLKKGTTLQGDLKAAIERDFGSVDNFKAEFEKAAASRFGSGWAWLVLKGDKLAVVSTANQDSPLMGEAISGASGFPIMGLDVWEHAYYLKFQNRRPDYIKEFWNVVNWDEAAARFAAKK
Procedure: as §2, §3

leukemia cell lines = test: Apoptosis induction in leukemia cell lines; assay type: cell-based, human; settings: leukemia cell lines tested
human CuZnSOD = biological target: T2, human CuZnSOD (Homo sapiens, UniProt P00441); test: In vitro SOD activity assay (xanthine/xanthine oxidase, XTT), human CuZnSOD; assay type: biochemical; settings: purified enzyme; read-out: IC50, inhibition of human CuZnSOD
T2 construct: purchased Sigma
T2 sequence (P00441 whole entry): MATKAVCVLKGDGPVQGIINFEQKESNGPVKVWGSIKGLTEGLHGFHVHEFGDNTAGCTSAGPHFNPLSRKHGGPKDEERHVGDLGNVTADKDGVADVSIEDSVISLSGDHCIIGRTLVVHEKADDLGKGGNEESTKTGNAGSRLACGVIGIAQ

Structure (SMILES): COc1cc2c(cc1O)CC[C@@H]1[C@@H]2CC[C@]2(C)[C@@H](O)CC[C@@H]12 [2-ME, 1,3,5(10)-estratrien-2,3,17b-triol 2 methylether]
- intracellular concentrating of drug [1]: approximately 10 fold
- H2O2 production (ML-1): concentration-dependent decrease of H2O2
- cytosolic cytochrome c (HL-60 [2]; at 12 and 14 h): significant amounts of cytosolic cytochrome c were detected
- cytosolic cytochrome c (HL-60 [2]; during the first 10 h): no cytochrome c was present in cytosol
- O2^− increase (CLL cells [3]; CLL cells, 30 μM): 226±37%
- cellular O2^− (CLL cells [3]; primary leukemia cells from a CLL patient, 2-ME alone): significant accumulation of cellular O2^−
- cell survival (CML cells): 54.7%
- IC50 (CEM): < 1 µM
- IC50 (bovine CuZnSOD): ~20 µM
- inhibition of SOD activity (CuZnSOD): substantially inhibited SOD activity
- cell survival (CLL cells [4]; 30 μM, CLL cells, 31 patients): 32.7%
- sensitivity to single agent (CLL cells [4]; 2-ME-resistant CLL cells): insensitive to either drug alone
- toxicity to CLL cells versus normal lymphocytes (CLL cells [4]; 10 and 30 μM, p<0.0001): significantly more toxic to CLL cells than to normal lymphocytes
- sensitivity to single agent (CLL cells [4]; CLL cells of the two sensitive patients): relatively sensitive
- cell survival in CLL cells (CLL cells [4]; FIGS. 6-8, MTT 72-96 h): substantial loss of cell survival
- cell survival (CLL cells [4]; primary leukemia cells from a CLL patient, 2-ME alone (FIG. 32)): loss of cell survival
- viability of PHA-treated lymphocytes (PHA-treated lymphocytes): remained viable
- proliferation of PHA-treated lymphocytes (PHA-treated lymphocytes; MTT, PHA 5 μg/ml): inhibited the proliferation
- expression of CuZnSOD mRNA, % of the control (CuZnSOD (SOD1) mRNA): 236%
- cell survival (AML cells): 49.6%
- rhodamine-123 fluorescence intensity (HL-60 cells [5]; 14 h exposure, control 70-100 arbitrary units): 20-40 units
- rhodamine-123 retention (HL-60 cells [5]; by 22 h): almost all the cells had lost their ability to retain rhodamine-123
- rhodamine-123 retention (HL-60 cells [5]; first 6 h of incubation): no obvious loss of dye retention
- IC50 (Raji): < 1 µM
- IC50 (HL-60 [6]): < 1 µM
- effect on xanthine oxidase (xanthine oxidase): little effect
- H2O2 production (HL-60 [7]): concentration-dependent decrease of H2O2
- nucleosomal DNA fragmentation (normal lymphocytes): no nucleosomal DNA fragmentation was detected
- IC50 (K562): < 1 µM
- cellular drug metabolites [8]: no significant drug metabolites
- cellular O2^− content (HL-60 cells [9]): increase of cellular O2^−
- cellular O2^− content (ML-1 cells): 6.3 arbitrary units
- IC50 (E. coli MnSOD): ~20 µM
- concentrations inducing apoptosis (leukemia cell lines): 1 to 10 µM
- IC50 (human CuZnSOD): ~20 µM
